{"source": "paper PMC6811774", "about": "“Potent, selective, and subunit‐dependent activation of TRPC5 channels by a xanthine derivative” (British Journal of Pharmacology, 2019)", "type_in_all_cases": "cell-based", "key": {"[1]": {"biological_target": "T1, native TRPC1:C4 channels in A498 cells (Homo sapiens, UniProt P48995+Q9UBN4)", "T1 construct": "A498 renal carcinoma cells, which endogenously express TRPC1:C4 channels; endogenous in cells; host or cells: A498", "T1 sequence (P48995 whole entry, one chain of several)": "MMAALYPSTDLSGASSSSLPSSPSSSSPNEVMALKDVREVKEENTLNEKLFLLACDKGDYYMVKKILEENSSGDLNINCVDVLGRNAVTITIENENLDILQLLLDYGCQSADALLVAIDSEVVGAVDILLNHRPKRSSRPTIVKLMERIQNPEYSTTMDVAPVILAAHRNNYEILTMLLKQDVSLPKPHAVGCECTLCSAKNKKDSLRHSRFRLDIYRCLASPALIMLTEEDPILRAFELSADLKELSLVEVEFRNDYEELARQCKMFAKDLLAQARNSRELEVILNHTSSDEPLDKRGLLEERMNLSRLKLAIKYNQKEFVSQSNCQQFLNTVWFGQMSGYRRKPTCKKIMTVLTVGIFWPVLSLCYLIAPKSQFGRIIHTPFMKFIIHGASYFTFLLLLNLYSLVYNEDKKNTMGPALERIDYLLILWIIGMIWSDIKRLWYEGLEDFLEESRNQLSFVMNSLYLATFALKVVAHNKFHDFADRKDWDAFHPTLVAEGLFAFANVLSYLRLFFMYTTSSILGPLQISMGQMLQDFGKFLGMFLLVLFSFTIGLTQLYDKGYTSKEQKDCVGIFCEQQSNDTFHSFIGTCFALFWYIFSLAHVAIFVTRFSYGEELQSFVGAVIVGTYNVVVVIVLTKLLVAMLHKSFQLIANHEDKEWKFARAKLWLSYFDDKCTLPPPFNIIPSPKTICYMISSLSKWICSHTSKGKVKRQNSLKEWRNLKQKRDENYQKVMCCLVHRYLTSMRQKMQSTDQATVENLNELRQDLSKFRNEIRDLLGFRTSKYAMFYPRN", "assay": "[Ca2+]i measurement in A498 renal carcinoma cells"}, "[2]": {"biological_target": "T2, TRPV4 (Homo sapiens, UniProt Q9HBA0)", "T2 construct": "expressed in transfected cells", "T2 sequence (Q9HBA0 whole entry)": "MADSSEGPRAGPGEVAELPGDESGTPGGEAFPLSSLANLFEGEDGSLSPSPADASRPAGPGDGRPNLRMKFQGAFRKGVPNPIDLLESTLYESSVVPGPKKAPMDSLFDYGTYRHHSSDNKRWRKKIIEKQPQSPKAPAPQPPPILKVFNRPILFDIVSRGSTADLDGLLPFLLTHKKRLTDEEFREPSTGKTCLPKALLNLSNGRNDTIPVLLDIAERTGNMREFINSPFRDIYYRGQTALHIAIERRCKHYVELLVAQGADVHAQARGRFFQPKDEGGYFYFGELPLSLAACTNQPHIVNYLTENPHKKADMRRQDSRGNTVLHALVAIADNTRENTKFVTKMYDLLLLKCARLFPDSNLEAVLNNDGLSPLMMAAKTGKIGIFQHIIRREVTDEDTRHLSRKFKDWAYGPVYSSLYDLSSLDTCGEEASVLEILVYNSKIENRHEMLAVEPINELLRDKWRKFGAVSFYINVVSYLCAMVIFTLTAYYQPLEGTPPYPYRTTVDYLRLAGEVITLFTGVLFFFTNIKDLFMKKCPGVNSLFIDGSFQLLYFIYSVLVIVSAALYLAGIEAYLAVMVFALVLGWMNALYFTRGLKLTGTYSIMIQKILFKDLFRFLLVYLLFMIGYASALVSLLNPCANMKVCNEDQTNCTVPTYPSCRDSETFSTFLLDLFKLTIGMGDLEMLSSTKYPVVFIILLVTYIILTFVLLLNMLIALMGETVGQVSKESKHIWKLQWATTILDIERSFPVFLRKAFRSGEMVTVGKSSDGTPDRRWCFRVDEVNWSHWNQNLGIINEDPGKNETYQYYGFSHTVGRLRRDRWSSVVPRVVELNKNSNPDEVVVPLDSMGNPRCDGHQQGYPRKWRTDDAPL", "assay": "[Ca2+]i selectivity assay, CHO cells stably expressing hTRPV4, 4α-PDD activation", "settings": "300 nM AM237; 5 μM 4α-PDD"}, "[3]": {"biological_target": "T3, TRPC4 channels (Homo sapiens, UniProt Q9UBN4)", "T3 construct": "expressed in transfected cells; host or cells: HEK 293 (transient)", "T3 sequence (Q9UBN4 1-977)": "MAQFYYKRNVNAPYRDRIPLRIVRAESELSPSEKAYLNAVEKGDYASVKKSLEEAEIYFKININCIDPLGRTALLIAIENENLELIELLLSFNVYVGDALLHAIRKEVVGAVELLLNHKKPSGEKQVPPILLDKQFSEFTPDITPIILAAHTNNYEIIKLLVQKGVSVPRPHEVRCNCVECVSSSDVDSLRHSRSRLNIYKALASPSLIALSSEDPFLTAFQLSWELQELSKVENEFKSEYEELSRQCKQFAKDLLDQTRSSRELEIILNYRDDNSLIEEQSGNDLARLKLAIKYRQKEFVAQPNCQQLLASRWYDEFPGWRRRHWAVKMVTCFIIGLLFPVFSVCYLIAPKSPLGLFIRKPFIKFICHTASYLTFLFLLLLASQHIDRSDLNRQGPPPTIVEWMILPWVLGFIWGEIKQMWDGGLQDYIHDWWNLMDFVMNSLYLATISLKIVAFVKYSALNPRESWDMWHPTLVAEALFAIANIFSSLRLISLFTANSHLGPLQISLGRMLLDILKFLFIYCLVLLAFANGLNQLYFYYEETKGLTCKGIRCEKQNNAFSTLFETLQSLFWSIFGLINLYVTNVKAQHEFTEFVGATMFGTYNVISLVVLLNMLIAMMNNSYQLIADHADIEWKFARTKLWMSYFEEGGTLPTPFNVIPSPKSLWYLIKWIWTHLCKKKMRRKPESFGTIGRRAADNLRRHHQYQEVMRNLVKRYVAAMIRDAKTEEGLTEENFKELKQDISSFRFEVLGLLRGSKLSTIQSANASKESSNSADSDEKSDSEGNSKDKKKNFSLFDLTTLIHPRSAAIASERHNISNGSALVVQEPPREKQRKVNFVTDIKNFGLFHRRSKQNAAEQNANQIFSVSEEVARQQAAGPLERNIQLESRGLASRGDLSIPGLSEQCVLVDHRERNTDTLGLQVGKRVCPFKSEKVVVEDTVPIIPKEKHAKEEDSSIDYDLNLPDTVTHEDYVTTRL", "assay": "Excised outside-out patch-clamp, HEK 293 cells transiently expressing hTRPC4", "settings": "30 nM EA; at 3 to 100 nM AM237", "procedure": "(§1) For electrophysiology experiments, cells were plated at a low density of 20–30% onto round or square glass coverslips (13 mm diameter or 5 × 5 mm), and TRPC expression in HEK T‐REx was induced with 1 μg·ml^−1 tetracycline 24 hr before experimentation. Experiments were carried out at room temperature. Extracellular solution consisted of SBS. Patch‐clamp recordings were performed in whole‐cell mode (Figure S7) and in excised outside‐out patch mode under voltage clamp at room temperature using 2–4 MΩ patch pipettes fabricated from borosilicate glass capillaries with an outside diameter of 1 mm and an inside diameter of 0.58 mm (Harvard Apparatus). The voltage protocol comprised voltage ramps applied from −100 to +100 mV every 10 s from a holding potential of 0 mV. The patch‐clamp currents were recorded using Axopatch 200B or HEKA EPC‐800 amplifiers, digitized by a Digidata 1440 or PCI6229 (National Instruments Japan, Tokyo, Japan) and recorded to a computer using pCLAMP10 (Molecular Devices) or WinWCPV4.5 (developed by Dr John Dempster, University of Strathclyde, UK). The data were filtered at 1 kHz and analysed offline using Clampfit 10.2 software or WinWCPV4.5 and Origin 9.1 software (OriginLab, Northampton, MA). […]"}, "[4]": {"biological_target": "TRPC4:C1 channels (Homo sapiens, UniProt P48995+Q9UBN4)", "sequence (P48995 whole entry, one chain of several)": "as the sequence (P48995 whole entry, one chain of several) above", "assay": "Excised outside-out patch-clamp, HEK 293 cells transiently co-expressing hTRPC4 and hTRPC1", "design": "expressed in transfected cells; host or cells: HEK 293 (transient co-expression)", "settings": "30 nM EA; at 3 to 100 nM AM237", "procedure": "as §1"}, "[5]": {"biological_target": "T4, TRPM2 (Homo sapiens, UniProt O94759)", "T4 construct": "expressed in transfected cells", "T4 sequence (O94759 whole entry)": "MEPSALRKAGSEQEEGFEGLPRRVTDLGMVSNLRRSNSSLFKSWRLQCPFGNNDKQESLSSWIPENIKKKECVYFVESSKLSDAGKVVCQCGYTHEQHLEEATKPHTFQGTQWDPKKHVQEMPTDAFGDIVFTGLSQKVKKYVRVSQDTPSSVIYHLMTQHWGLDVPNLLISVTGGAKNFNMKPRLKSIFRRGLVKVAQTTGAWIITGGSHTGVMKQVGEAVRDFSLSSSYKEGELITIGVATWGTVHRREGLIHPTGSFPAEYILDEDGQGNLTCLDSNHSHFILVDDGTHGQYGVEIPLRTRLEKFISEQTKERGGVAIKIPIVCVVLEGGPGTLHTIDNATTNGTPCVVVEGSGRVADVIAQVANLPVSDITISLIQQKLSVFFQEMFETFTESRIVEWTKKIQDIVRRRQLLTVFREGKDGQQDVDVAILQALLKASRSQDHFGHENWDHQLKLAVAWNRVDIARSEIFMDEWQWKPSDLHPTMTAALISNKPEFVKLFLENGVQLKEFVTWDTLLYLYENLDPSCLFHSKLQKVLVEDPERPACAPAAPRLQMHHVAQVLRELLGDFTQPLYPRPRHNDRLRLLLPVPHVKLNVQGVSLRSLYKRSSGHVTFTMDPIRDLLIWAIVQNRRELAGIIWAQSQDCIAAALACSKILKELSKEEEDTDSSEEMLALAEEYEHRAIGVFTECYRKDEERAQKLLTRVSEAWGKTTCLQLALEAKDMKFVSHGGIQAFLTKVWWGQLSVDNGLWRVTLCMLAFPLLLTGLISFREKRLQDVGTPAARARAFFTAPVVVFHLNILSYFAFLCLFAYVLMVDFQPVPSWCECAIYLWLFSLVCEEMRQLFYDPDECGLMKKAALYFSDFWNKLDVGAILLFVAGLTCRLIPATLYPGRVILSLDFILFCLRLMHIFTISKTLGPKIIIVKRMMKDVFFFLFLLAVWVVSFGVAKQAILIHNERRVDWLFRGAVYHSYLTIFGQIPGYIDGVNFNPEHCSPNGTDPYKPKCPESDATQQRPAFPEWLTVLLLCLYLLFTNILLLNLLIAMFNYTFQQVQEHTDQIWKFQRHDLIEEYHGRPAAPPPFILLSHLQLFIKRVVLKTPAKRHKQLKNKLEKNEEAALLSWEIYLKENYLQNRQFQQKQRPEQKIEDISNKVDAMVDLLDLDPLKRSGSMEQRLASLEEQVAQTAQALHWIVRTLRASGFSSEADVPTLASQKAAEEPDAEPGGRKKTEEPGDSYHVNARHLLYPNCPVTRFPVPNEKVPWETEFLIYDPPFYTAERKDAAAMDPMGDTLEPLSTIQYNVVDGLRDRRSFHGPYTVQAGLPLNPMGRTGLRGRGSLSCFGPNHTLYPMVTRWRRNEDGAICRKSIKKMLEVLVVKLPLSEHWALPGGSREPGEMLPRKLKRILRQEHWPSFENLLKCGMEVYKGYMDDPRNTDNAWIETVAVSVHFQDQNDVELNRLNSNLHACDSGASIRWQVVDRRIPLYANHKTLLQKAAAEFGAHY", "assay": "[Ca2+]i selectivity assay, (Tet+) HEK T-REx cells expressing TRPM2, H2O2 activation", "settings": "300 nM AM237; 1 mM H2O2"}}}
{"smiles": "Cn1c(=O)n(CCCO)c(=O)c2c1nc(Oc1ccc(Cl)c(OC(F)(F)F)c1)n2Cc1ccc(Cl)cc1", "note": "[AM237]", "values": [{"measurement": "Hill slope, inhibition of EA response", "setting": "[1]", "value": -0.99}, {"measurement": "Effect of pretreatment on basal [Ca2+]i", "setting": "[1]; 0.01–10 nM AM237", "value": "no effect"}, {"measurement": "Activation upon acute administration ([Ca2+]i)", "setting": "[1]; 3-300 nM AM237", "value": "lack of activation"}, {"measurement": "IC50", "setting": "[1]; AM237 pretreatment, then EA, read-out: IC50, inhibition of EA-mediated increase in [Ca2+]i", "value": 0.849, "unit": "nM"}, {"measurement": "Activation or inhibition of TRPV4", "setting": "[2]", "value": "no activation or inhibition"}, {"measurement": "Inhibition of currents induced by EA", "setting": "[3]", "value": "full inhibition"}, {"measurement": "Inhibition of currents induced by EA", "setting": "[4]", "value": "full inhibition"}, {"measurement": "Activation or inhibition of TRPM2", "setting": "[5]", "value": "no activation or inhibition"}]}
